Assay results: patent US8466290B2, “STAT3 inhibitor containing quinolinecarboxamide derivative as active ingredient” (Pharma IP General Incorporated Association, priority 2008, dated 2013)
Values belong to the compound of their own block, whether it stands above or below them.

Legend:
Format in all cases: cell-based
[1] = tested on: Human lymphoma SCC-3 cells; assay: SCC-3 cell growth inhibition test (MTT method); settings: Homo sapiens, 72-hour culture, read-out: Cell growth inhibitory activity (IC50: μM)
Description: Simultaneously with cell inoculation, each test compound diluted to various concentrations with an RPMI medium was added to each well.

STAT3 = STAT3 transcription inhibition test (reporter gene method, oncostatin M stimulation); settings: Homo sapiens; compound at 100 μM; STAT3 reporter HeLa stable cell line; oncostatin M 10 ng/mL, 4 hours; read-out: STAT3 transcription inhibitory activity (%)
Description: The inhibition of STAT3 transcription was evaluated by using STAT3 reporter HeLa stable cell line (Panomics Inc., catalog No. RC0003), a cell line for the reporter gene method, and performing the following method according to the appendix included therein.
STAT3 reporter HeLa stable cell line subcultured and maintained in a Dulbecco's modified Eagle's medium (DMEM) containing 10% fetal bovine serum, 100 units/mL penicillin, and 100 μg/mL streptomycin was inoculated at a concentration of 40000 cells/well to a 96-well plate (white) and attached to the plate by overnight incubation at 37° C. under 5% CO2. After addition of each evaluation compound adjusted to various concentrations (adjusted with a DMSO solution), the cells were precultured for 1 hour. Then, oncostatin M for activating STAT3 was added at a final concentration 10 ng/mL, and the cells were further cultured at 37° C. under 5% CO2 for 4 hours. Luciferase activity derived from the cells was determined using Steady-Glo Luciferase Assay System (Promega Corp.), and STAT3 transcriptional activity scores were calculated according to the following formula: STAT3 transcriptional activity score (%)=100×(Lchem−L0)/(LDMSO−L0) Lo: luminescence intensity obtained without stimulation with oncostatin M Lchem: luminescence intensity obtained by the addition of a test sample LDMSO: luminescence intensity obtained by the addition of only a solvent for dissolving a test sample

MDA-MB-435S = MDA-MB-435S cell growth inhibitory activity; settings: Homo sapiens, compound at 20 μM, 72 hours, read-out: Cell growth inhibitory activity (%)
Description: […] Each well was washed three times with a medium. Then, after addition of 100 μL/well of a medium and 20 μL/well of CellTiter 96 AQueous One Solution Reagent (Promega Corp.), the cells were incubated at 37° C. for 2 hours in the presence of 5% CO2.

IC50 [1]: 6 µM
Structure (SMILES): Cc1cccc2c(C(=O)Nc3nnc(-c4ccco4)o3)cc(-c3ccccc3)nc12 [Ia-25, N-[5-(2-furyl)-1,3,4-oxadiazol-2-yl]-8-methyl-2-phenyl-4-quinolinecarboxamide]
inhibition at 100 µM (STAT3): 77%

Structure (SMILES): CCCCOc1cc(C(=O)Nc2nnc(-c3ccco3)o2)c2ccccc2n1 [Ia-35, 2-(1-butoxy)-N-[5-(2-furyl)-1,3,4-oxadiazol-2-yl]-4-quinolinecarboxamide]
IC50 [1]: 5.6 µM
inhibition at 100 µM (STAT3): 57%

Structure (SMILES): COc1cccc(-c2cc(C(=O)Nc3nnc(-c4ccco4)o3)c3ccccc3n2)c1 [Ia-42, N-[5-(2-furyl)-1,3,4-oxadiazol-2-yl]-2-(3-methoxyphenyl)-4-quinolinecarboxamide]
inhibition at 20 µM (MDA-MB-435S): 92%
inhibition at 100 µM (STAT3): 92%

Structure (SMILES): N#Cc1cccc(-c2cc(C(=O)Nc3nnc(-c4ccco4)o3)c3ccccc3n2)c1 [Ia-43, 2-(3-cyanophenyl)-N-[5-(2-furyl)-1,3,4-oxadiazol-2-yl]-4-quinolinecarboxamide]
inhibition at 20 µM (MDA-MB-435S): 72%
inhibition at 100 µM (STAT3): 71%

Structure (SMILES): O=C(Nc1nnc(-c2ccco2)o1)c1cc(-c2ccc(F)cc2)nc2ccccc12 [Ia-46, 2-(4-fluorophenyl)-N-[5-(2-furyl)-1,3,4-oxadiazol-2-yl]-4-quinolinecarboxamide]
inhibition at 20 µM (MDA-MB-435S): 54%
inhibition at 100 µM (STAT3): 80%

Structure (SMILES): Cc1ccc(-c2cc(C(=O)Nc3nnc(-c4ccco4)o3)c3ccccc3n2)cc1 [Ia-48, N-[5-(2-furyl)-1,3,4-oxadiazol-2-yl]-2-(4-methylphenyl)-4-quinolinecarboxamide]
inhibition at 20 µM (MDA-MB-435S): 69%
inhibition at 100 µM (STAT3): 92%

Structure (SMILES): O=C(Nc1nnc(-c2ccco2)o1)c1cc(-c2ccc(OC(F)F)cc2)nc2ccccc12 [Ia-49, 2-(4-difluoromethoxyphenyl)-N-[5-(2-furyl)-1,3,4-oxadiazol-2-yl]-4-quinolinecarboxamide]
inhibition at 20 µM (MDA-MB-435S): 51%
inhibition at 100 µM (STAT3): > 100%

Structure (SMILES): COc1ccc(-c2cc(C(=O)Nc3nnc(-c4ccco4)o3)c3ccccc3n2)cc1 [Ia-51, N-[5-(2-furyl)-1,3,4-oxadiazol-2-yl]-2-(4-methoxyphenyl)-4-quinolinecarboxamide]
inhibition at 20 µM (MDA-MB-435S): 56%
inhibition at 100 µM (STAT3): > 100%

Structure (SMILES): COc1ccc(-c2cc(C(=O)Nc3nnc(-c4ccco4)o3)c3ccccc3n2)cc1OC [Ia-57, N-[5-(2-furyl)-1,3,4-oxadiazol-2-yl]-2-(3,4-dimethoxyphenyl)-4-quinolinecarboxamide]
inhibition at 20 µM (MDA-MB-435S): 64%
inhibition at 100 µM (STAT3): > 100%

Structure (SMILES): O=C(Nc1nnc(-c2ccco2)o1)c1cc(-c2ccc3c(c2)OCO3)nc2ccccc12 [Ia-58, N-[5-(2-furyl)-1,3,4-oxadiazol-2-yl]-2-(3,4-methylenedioxyphenyl)-4-quinolinecarboxamide]
inhibition at 20 µM (MDA-MB-435S): 58%
inhibition at 100 µM (STAT3): > 100%

Structure (SMILES): Cc1ccc(-c2cc(C(=O)Nc3nnc(-c4ccco4)o3)c3ccccc3n2)o1 [Ia-64, N-[5-(2-furyl)-1,3,4-oxadiazol-2-yl]-2-(5-methyl-2-furyl)-4-quinolinecarboxamide]
inhibition at 20 µM (MDA-MB-435S): 57%
inhibition at 100 µM (STAT3): > 100%

IC50 [1]: 2.1 µM
Structure (SMILES): O=C(Nc1nnc(-c2ccco2)o1)c1cc(-c2ccccc2)nc2ccc(F)cc12 [Ia-67, 6-fluoro-N-[5-(2-furyl)-1,3,4-oxadiazol-2-yl]-2-phenyl-4-quinolinecarboxamide]
inhibition at 100 µM (STAT3): 90%

Structure (SMILES): O=C(Nc1nnc(-c2ccco2)o1)c1cc(-c2ccccc2)nc2ccc(Br)cc12 [Ia-68, 6-bromo-N-[5-(2-furyl)-1,3,4-oxadiazol-2-yl]-2-phenyl-4-quinolinecarboxamide]
inhibition at 20 µM (MDA-MB-435S): 63%
inhibition at 100 µM (STAT3): > 100%

IC50 [1]: 2.2 µM
Structure (SMILES): O=C(Nc1nnc(-c2ccco2)o1)c1cc(-c2ccccc2)nc2cc(Cl)ccc12 [Ia-72, 7-chloro-N-[5-(2-furyl)-1,3,4-oxadiazol-2-yl]-2-phenyl-4-quinolinecarboxamide]
inhibition at 100 µM (STAT3): > 100%

Structure (SMILES): O=C(Nc1nnc(-c2ccco2)o1)c1cc(-c2ccccc2)nc2ccc(-c3ccccc3)cc12 [Ia-75, N-[5-(2-furyl)-1,3,4-oxadiazol-2-yl]-2,6-diphenyl-4-quinolinecarboxamide]
inhibition at 20 µM (MDA-MB-435S): 64%
inhibition at 100 µM (STAT3): > 100%

Structure (SMILES): O=C(Nc1nnc(-c2ccco2)o1)c1cc(-c2ccccc2)nc2ccc(-c3ccncc3)cc12 [Ia-76, N-[5-(2-furyl)-1,3,4-oxadiazol-2-yl]-2-phenyl-6-(4-pyridyl)-4-quinolinecarboxamide]
inhibition at 20 µM (MDA-MB-435S): 84%
inhibition at 100 µM (STAT3): > 100%

Structure (SMILES): O=C(Nc1nnc(Cc2ccccc2)o1)c1cc(-c2ccccc2)nc2ccccc12 [Ia-83, N-(5-benzyl-1,3,4-oxadiazol-2-yl)-2-phenyl-4-quinolinecarboxamide]
inhibition at 20 µM (MDA-MB-435S): 90%
inhibition at 100 µM (STAT3): > 100%

Structure (SMILES): CCC(=O)Nc1ccc2nc(-c3ccccc3)cc(C(=O)Nc3nnc(-c4ccco4)o3)c2c1 [Ia-93, N-[5-(2-furyl)-1,3,4-oxadiazol-2-yl]-2-phenyl-6-propionylamino-4-quinolinecarboxamide]
inhibition at 20 µM (MDA-MB-435S): 67%
inhibition at 100 µM (STAT3): 72%

Structure (SMILES): O=C(Nc1nnc(-c2ccco2)o1)c1cc(-c2ccccc2)nc2ccc(-c3ccc(O)cc3)cc12 [Ia-98, N-[5-(2-furyl)-1,3,4-oxadiazol-2-yl]-6-(4-hydroxyphenyl)-2-phenyl-4-quinolinecarboxamide]
inhibition at 20 µM (MDA-MB-435S): 86%
inhibition at 100 µM (STAT3): > 100%

Structure (SMILES): O=C(Nc1nnc(-c2ccco2)o1)c1cc(-c2ccccc2)nc2ccc(-c3ccsc3)cc12 [Ia-99, N-[5-(2-furyl)-1,3,4-oxadiazol-2-yl]-6-(3-thienyl)-2-phenyl-4-quinolinecarboxamide]
inhibition at 20 µM (MDA-MB-435S): 93%
inhibition at 100 µM (STAT3): 73%

Structure (SMILES): O=C(Nc1nnc(-c2ccco2)o1)c1cc(-c2ccccc2)nc2ccc(-c3cccnc3)cc12 [Ia-100, N-[5-(2-furyl)-1,3,4-oxadiazol-2-yl]-6-(3-pyridyl)-2-phenyl-4-quinolinecarboxamide]
inhibition at 20 µM (MDA-MB-435S): 76%
inhibition at 100 µM (STAT3): 92%

Structure (SMILES): O=C(Nc1nnc(-c2ccccc2)o1)c1cc(-c2ccccc2)nc2ccc(Cl)cc12 [Ia-110, 6-chloro-2-phenyl-N-(5-phenyl-1,3,4-oxadiazol-2-yl)-4-quinolinecarboxamide]
inhibition at 20 µM (MDA-MB-435S): 65%
inhibition at 100 µM (STAT3): 89%

Structure (SMILES): O=C(Nc1nnc(-c2ccccc2)o1)c1cc(-c2ccccc2)nc2ccc(OC(F)(F)F)cc12 [Ia-111, N-(5-phenyl-1,3,4-oxadiazol-2-yl)-2-phenyl-6-trifluoromethoxy-4-quinolinecarboxamide]
inhibition at 20 µM (MDA-MB-435S): 87%
inhibition at 100 µM (STAT3): > 100%

Structure (SMILES): O=C(Nc1nnc(-c2ccccc2Cl)o1)c1cc(-c2ccccc2)nc2ccc(Cl)cc12 [Ia-112, 6-chloro-N-[5-(2-chlorophenyl)-1,3,4-oxadiazol-2-yl]-2-phenyl-4-quinolinecarboxamide]
inhibition at 20 µM (MDA-MB-435S): 69%
inhibition at 100 µM (STAT3): > 100%

Structure (SMILES): O=C(Nc1nnc(-c2ccccc2Cl)o1)c1cc(-c2ccccc2)nc2ccc(OC(F)(F)F)cc12 [Ia-113, N-[5-(2-chlorophenyl)-1,3,4-oxadiazol-2-yl]-2-phenyl-6-trifluoromethoxy-4-quinolinecarboxamide]
inhibition at 20 µM (MDA-MB-435S): 76%
inhibition at 100 µM (STAT3): > 100%

Structure (SMILES): COc1ccc(-c2nnc(NC(=O)c3cc(-c4ccccc4)nc4ccc(OC(F)(F)F)cc34)o2)cc1 [Ia-117, N-[5-(4-methoxyphenyl)-1,3,4-oxadiazol-2-yl]-2-phenyl-6-trifluoromethoxy-4-quinolinecarboxamide]
inhibition at 20 µM (MDA-MB-435S): 85%
inhibition at 100 µM (STAT3): 87%

Structure (SMILES): O=C(Nc1nnc(-c2cccs2)o1)c1cc(-c2ccccc2)nc2ccccc12 [Ia-a, 2-phenyl-N-[5-(2-thienyl)-1,3,4-oxadiazol-2-yl]-4-quinolinecarboxamide]
inhibition at 20 µM (MDA-MB-435S): 89%
inhibition at 100 µM (STAT3): 86%

Structure (SMILES): COc1ccccc1-c1nnc(NC(=O)c2cc(-c3ccccc3)nc3ccccc23)o1 [Ia-c, N-[5-(2-methoxyphenyl)-1,3,4-oxadiazol-2-yl]-2-phenyl-4-quinolinecarboxamide]
inhibition at 20 µM (MDA-MB-435S): 97%
inhibition at 100 µM (STAT3): 67%

Structure (SMILES): O=C(Nc1nnc(Br)s1)c1cc(-c2ccccc2)nc2ccccc12 [Ib-2, N-(5-bromo-1,3,4-thiadiazol-2-yl)-2-phenyl-4-quinolinecarboxamide]
inhibition at 20 µM (MDA-MB-435S): 79%
inhibition at 100 µM (STAT3): > 100%

Structure (SMILES): O=C(Nc1nnc(-c2ccncc2)s1)c1cc(-c2ccccc2)nc2ccc(OC(F)(F)F)cc12 [Ib-8, 2-phenyl-N-[5-(4-pyridyl)-1,3,4-thiadiazol-2-yl]-6-trifluoromethoxy-4-quinolinecarboxamide]
inhibition at 20 µM (MDA-MB-435S): 80%
inhibition at 100 µM (STAT3): 65%

Structure (SMILES): CC(C)Oc1cccc(-c2cc(C(=O)Nc3nnc(-c4ccncc4)s3)c3ccccc3n2)c1 [Ib-b, 2-(3-isopropoxyphenyl)-N-[5-(4-pyridyl)-1,3,4-thiadiazol-2-yl]-4-quinolinecarboxamide]
inhibition at 20 µM (MDA-MB-435S): 97%
inhibition at 100 µM (STAT3): > 100%
